“Also recorded” adds a separate entry of the source.
Legend:
Format in all cases: biochemical
A/M2 PR8/34 = A/M2 PR8/34 (Influenza A virus, UniProt P06821)
B/M2 Lee40 = B/M2 Lee40 (Influenza B virus, UniProt P03493)
A/M2 PR8/34 (V27S31) = A/M2 PR8/34 (V27S31) (Influenza A virus, UniProt P06821, A27V/N31S)
[1] = biological target: A/M2 Udorn72 with a mutation (S31N) (Influenza A virus, UniProt P0DOF5, S31N)

CC(N)C12CC3CC(CC(C3)C1)C2 (stereo not drawn) [rimantadine]
H+ transport across VLP membranes (fluorescence) (A/M2 PR8/34): exerted no effect | H+ transport across VLP membranes (fluorescence) (B/M2 Lee40): exerted no effect

NC12CC3CC(CC(C3)C1)C2 [amantadine]
H+ transport across VLP membranes (fluorescence) (A/M2 PR8/34): exerted no effect; also recorded: in the presence or absence of amantadine | H+ transport across VLP membranes (fluorescence) (B/M2 Lee40): exerted no effect | H+ translocation across VLP membranes (fluorescence) (A/M2 PR8/34 (V27S31)): in the absence, but not in the presence of 100 μM of the drug | H+ transport across VLP membranes (fluorescence) [1]: resistant to inhibition

— US8377691B2 (priority 2006, dated 2013)
